# Test results: patent US4654373A, “Pharmaceutical formulations containing coenzyme Q10 suitable for topic administration” (Italfarmaco S.A., priority 1982, dated 1987)
# Legend:
# [1] = Distribution after oral administration (HPLC); assay type: in vivo, rat; conditions: oral 50 mg/kg; for concentration at 0.5 h / concentration at 1 h / concentration at 6 h: rat; for concentration at 0.5 h: 30 min.; for concentration at 1 h: 60 min.
# Protocol: Rats were treated with 50 mg/kg of Coenzyme Q10 by oral route and the concentration of the active principle was determined by using the HPLC method in several organs after 30 min., 60 min. and 6 hours.
# New Zealand rabbits = assay: Acute toxicity by topical cutaneous route in rabbits; assay type: in vivo, New Zealand rabbit; conditions: 5 to 20 mg per cm^2 of depilated (intact or abraded) back, immediately and after 8 days
# Protocol: Similar experiences were carried out also on a group of 8 New Zealand rabbits of both sexes, having the back depilated. The cutis of 4 of these animals was also abraded.
# Two days after the depilation, the compositions of the invention, corresponding to doses of Coenzyme Q10 ranging from 5 to 20 mg per square centimeter of area of the depilated back, were spread on the cutis of the animals so prepared.
# holes in rabbits' ears = assay: Tissular regeneration and healing of holes in rabbits' ears; assay type: in vivo, New Zealand rabbit; conditions: topical composition, 5 mg/cc, versus not treated rabbits
# [2] = cited from earlier work
# pregnant Wistar rats = assay: Theratogenesis test, topical; conditions: topical on epilated and abraded skin, 50 mg/kg/die, seventh to fifteenth day of pregnancy
# Protocol: In order to evaluate if the administration by the topical route of Coenzyme Q10 could interfere on the normal ebryonal or phaetal development, a pharmaceutical composition of the invention corresponding to an amount of Coenzyme Q10 of 50 mg/kg/die was spread on the epilated and abraded skin of ten pregnant Wistar rats.
# The administration was carried out from the seventh to the fifteenth day of pregnancy.
# The main internal organs were also subjected to observation.
# [3] = Cutaneous absorption of Coenzyme Q10 in the rat; assay type: in vivo, male Wistar rat; conditions: topical, 5 mg/kg/cm^2 of skin
# Protocol: In order to evaluate the cutaneous absorption of Coenzyme Q10 after its application on the skin a group of male Wistar rats of the average weight of 280 g was used. The animals were epilated on the back and a composition corresponding to a dose of Coenzyme Q10 of 5 mg/kg/cm^2 of skin was applied on the epilated back.
# Samples of skin were then removed both from treated and untreated animals at intervals of 1, 3, 6 and 24 hours from treatment. The skin, together with the removed subcutaneous tissue, was homogenized and kept at -20° C. till the moment of analysis.
# Samples of 5 g each of tissue were saponified in the presence of pyrogallole.
# The fraction containing Coenzyme Q10 and other neutral fats was extracted with hydrocarbon solvents and purified chromatographically on column.
# The spectrophotometric measurement was performed according to the method described by Linn B. O., Page A. C., Wong E. L., Gale, P. H., Shunk C. H., Folkers K. [J. Am. Chem. Soc., 81, 4007 (1959)].
# male Wistar rats = assay: Chronic toxicity, topical, 60 days, rats; conditions: 50 mg/kg/die, daily for 60 days
# Protocol: (§1) These tests were carried out by administering locally on the skin of two groups of 30 male Wistar rats and of 6 male New Zealand rabbits with the skin epilated, the skin of one group being epilated and abraded, a pharmaceutical composition for a total amount of 50 mg/kg/die of Coenzyme Q10.
# (§2) The administration went on daily for 60 consecutive days.
# (§3) Before the start of the treatment and at the end all the animals were subjected to a series of controls and examinations regarding the ponderal increase, red-cells and white cells count, haemoglobin concentration in the blood, glycemia, azotemia, transaminases and blood total proteins. The urinary elimination was also tested. At the end of treatment all the animals were killed and accurate anatomopathological and histopathological examinations were performed on each animal with particular regard to the zones of treated skin.
# [4] = Cutaneous concentration after topical administration (HPLC); assay type: in vivo, rat; conditions: topical 2 mg/cm^2, vegetal oils as solvents and excipients
# Protocol: Rats were cutaneously treated with 2 mg/cm^2 of skin of Coenzyme Q10 and the concentration was measured by the HPLC method. The results are listed in Table 3 for two different vehicles.
# male New Zealand rabbits = assay: Chronic toxicity, topical, 60 days, rabbits; conditions: 50 mg/kg/die, daily for 60 days
# Protocol: as §1, §2, §3
# [5] = Distribution after parenteral (intramuscular) administration (HPLC); assay type: in vivo, rat; conditions: intramuscular 20 mg/kg; for concentration at 0.5 h / concentration at 1 h / concentration at 6 h: rat, im; for concentration at 0.5 h: 30 min.; for concentration at 1 h: 60 min.
# Protocol: Rats were treated with 20 mg/kg of Coenzyme Q10 by intramuscular injection and the concentration of the active compound was determined by HPLC after 30 min., 60 min. and 6 hours.
# experimental burns = assay: Experimental burn in the rat; assay type: in vivo, male Wistar rat
# [6] = in excipients compatible with parenteral administration; cited from earlier work
# dental caries = assay: Dental caries in hamster fed by cariogenic diet; assay type: in vivo; conditions: 25 mg/kg on the dental gingival region
# [7] = Cutaneous absorption in volunteers; assay type: in vivo, human (health volunteers); conditions: human, skin, topical or ocular, 1 mg/cm^2, corneous layer removed, read-out: mean percent absorption
# Protocol: For these tests the method described by Tauber and al. [Arzneimittel Forschung, 26, N7b, 1492 (1976)].
# On 4 health volunteers, areas of about 30 cm^2 of skin whose corneous layer had been removed, were spread with a composition corresponding to 1 mg/cm^2 of Coenzyme Q10.
# Immediately after the application and after 24 hours from the application on the skin, the composition not absorbed was removed by cotton-wool and the cotton-wool used for the removal was extracted with chloroform/ethanol.
# After saponification in presence of pyrogallole the fraction containing Coenzyme Q10 and other neutral fact was extracted with hydrocarbon solvents and purified chromatographically on column.
# The spectrophotometric measure was carried out according to the method described by Linn and al. [J. Am. Chem. Soc., 81, 4007 (1959)].
# [8] = system: carrageenin oedema in the rat paw; assay: Carrageenin oedema test in rats; assay type: in vivo, male rat; conditions: topical, both formulations
# Protocol: To male rats weighing 220 g, fasted for 24 hours, 0.1 ml of 1% carrageenin suspension was injected into the plantar surface of a hind paw.
# The control group, consisting of 25 animals, was administered with the only carrageenin, two other groups, consisting each of 25 animals, were topically administered with Coenzyme Q10 in form of two different formulations, in peanut oil and olive oil respectively, before the carrageenin injection. The results were expressed by means of a plethysmograph, which measured the size of the oedema 4 hours after the carrageenin injection.
# Wistar rats = assay: Acute toxicity by topical cutaneous route in rats; assay type: in vivo, Wistar rat; conditions: 5 mg up to 20 mg per cm^2 of depilated (intact or abraded) skin, immediate and eight days after treatment
# Protocol: To assess the toxicity of the product administered by the topical cutaneous route, two groups of forty Wistar rats of both sexes in the same number, carefully depilated on the back, were used.
# To a group of these rats, the depilated skin was also abraded. On the cutis so prepared after two days the compositions of the invention containing increasing amounts of Coenzyme Q10 in the ratio of 5 mg up to 20 mg for each square centimeter of depilated skin, were spread for each group of ten rats.
# [9] = system: dithranol (anthralin) induced inflammatory reaction; assay: Test of dithranol induced cutaneous inflammation; assay type: in vivo, male Guinea pig; conditions: topical 2 mg/cm^2 cutis, both in peanut and soybean oil, 48 hours
# Protocol: Male Guinea pigs, weighing 330 g, were epilated at the back and, 24 hours after that, 20 mg of dithranol (anthralin) was intradermically injected into symmetric areas of the back.
# Coenzyme Q10 dissolved in peanut and soybean oil was spread on the backs of the animals under test, at the dosage of 2 mg/cm^2 cutis, whereas the control group of animals was subjected to no treatment.
# The treated area was covered with Nescofilm and bound up with Micropore.
# 48 Hours after the administration of the inflammatory agent, the size of the induced inflammatory area was evaluated.
# [10] = oral route; cited from earlier work
# [11] = heart, read-out: Mean tissutal concentration
# [12] = kidney, read-out: Mean tissutal concentration
# [13] = liver, read-out: Mean tissutal concentration
# [14] = plasma, read-out: Mean plasmatic concentration
# [15] = oral 50-100 mg/dosage (100-200 mg pro die)
structure (smiles),measurement,setting,value
"COC1=C(OC)C(=O)C(CC=C(C)CCC=C(C)CCC=C(C)CCC=C(C)CCC=C(C)CCC=C(C)CCC=C(C)CCC=C(C)CCC=C(C)CCC=C(C)C)=C(C)C1=O [Coenzyme Q10, 2,3-dimethoxy-5-methyl-6-decaprenyl-benzoquinone]",cutaneous concentration (in words),[1],no appreciable appearance of cutaneous concentration
same,heart concentration change (in words),[1],substantial changes occur at the heart level
same,plasmatic concentration change (in words),[1],negligeable
same,concentration at 0.5 h,[1]; [11],7100 ng/g
same,concentration at 1 h,[1]; [11],12300 ng/g
same,concentration at 6 h,[1]; [11],14700 ng/g
same,concentration at 0.5 h,[1]; [12],6500 ng/g
same,concentration at 1 h,[1]; [12],10100 ng/g
same,concentration at 6 h,[1]; [12],15600 ng/g
same,concentration at 0.5 h,[1]; [13],4100 ng/g
same,concentration at 1 h,[1]; [13],7100 ng/g
same,concentration at 6 h,[1]; [13],9800 ng/g
same,concentration at 0.5 h,[1]; [14],170 ng/mL
same,concentration at 1 h,[1]; [14],190 ng/mL
same,concentration at 6 h,[1]; [14],2700 ng/mL
same,mortality or clear toxicity,New Zealand rabbits,"neither immediately after the administration nor after 8 days, mortality cases or clear toxicity were noticed"
same,tissular regeneration and healing processes,holes in rabbits' ears,much faster than in the not treated rabbits
same,clinical results (in words),[2]; [15],satisfactory clinical results
same,side-effects (in words),[2]; [15],"increases, sometimes intolerably, the side-effects of the drug"
same,change in Coenzyme Q10 in peripheral tissues (in words),[2]; oral administration of high doses,no changes in Coenzyme Q10 are detectable
same,alteration or malformation of phoetuses,pregnant Wistar rats,no alteration or malformation was noticed
same,time of highest concentrations in cutaneous tissue,[3],from the third to the sixth hour after the administration
same,biological parameters versus untreated controls,male Wistar rats,"did not show, in comparison with the untreated control animals, any significative difference in the different biological parameters considered"
same,histological examination of the skin,male Wistar rats,did not show any pathological change
same,concentration at the cutis level (in words),[4],A good increase
same,biological parameters versus untreated controls,male New Zealand rabbits,"did not show, in comparison with the untreated control animals, any significative difference in the different biological parameters considered"
same,histological examination of the skin,male New Zealand rabbits,did not show any pathological change
same,cutaneous concentration (in words),[5],no concentration in the cutis is present at any time
same,concentration at 0.5 h,[5]; [11],10500 ng/g
same,concentration at 1 h,[5]; [11],14300 ng/g
same,concentration at 6 h,[5]; [11],16200 ng/g
same,concentration at 0.5 h,[5]; [12],9500 ng/g
same,concentration at 1 h,[5]; [12],11500 ng/g
same,concentration at 6 h,[5]; [12],10200 ng/g
same,concentration at 0.5 h,[5]; [13],11700 ng/g
same,concentration at 1 h,[5]; [13],12600 ng/g
same,concentration at 6 h,[5]; [13],14400 ng/g
same,concentration at 0.5 h,[5]; [14],270 ng/mL
same,concentration at 1 h,[5]; [14],940 ng/mL
same,concentration at 6 h,[5]; [14],800 ng/mL
same,seriousness of the lesions (in words),"experimental burns; preventive topical application, 1-2 mg/cm^2 of skin",decreased in fact the seriousness of the lesions
same,protective effect on experimental burn (in words),experimental burns; topical route,protective effect
same,reduction of the seriousness of the burn (Blue Evans),"experimental burns; treated daily, 1-2 mg/cm^2 of skin, 4 consecutive days preceding burn induction",more than 50%
same,seriousness of the burn versus control rats (Blue Evans),experimental burns; treated only once half an hour before burn induction,not significantly different
same,solubility (in words),[6],very low solubility
same,treated animals in which onset of dental caries is prevented,dental caries,more than 50%
same,Fa at 24 h,[7],18.5 ± 6.2%
same,carrageenin oedema inhibition (in words),[8],partially inhibited
same,"mortality, toxic effect or intolerance",Wistar rats,"did not show the appearance of any mortality cases, toxic effect or intolerance"
same,decrease of inflammatory areas with respect to non-treated animals,[9],50%
same,LD50,[10],higher than 4 g/kg
